Experimental data from patent publication US9102752B2, “Peptide vaccine for prevention and immunotherapy of dementia of the Alzheimer's type” (United Biomedical, Inc., priority 2013, dated 2015).

How the values were obtained:
[1] = system: anti-Aβ antibodies in sera from vaccinated baboons; assay: Epitope mapping, 10-mer peptide-based ELISA with sera from vaccinated baboons; conditions: peptide as plate coating
Protocol: Fine specificity analyses of anti-Aβ antibodies in immunized hosts or vaccines were determined by epitope mapping.
These nested peptides were used individually to coat microtiter wells as solid-phase immunoadsorbents for ELISA tests. The positive control ELISA plate was coated with Aβ1-28. They were tested for antibody binding with the sera from the four immunized baboons, from weeks 0, 10, 84 and 111. Baboon sera were serially diluted and assayed on plates coated with a 10-mer peptide at 5 ug/mL.

[2] = system: anti-Aβ antibodies in macaque antisera; assay: Specificity analysis (10-mer peptide ELISA) of antisera from Cynomolgus macaques; format: binding
[3] = system: anti-Aβ antibodies in sera of vaccinated patients; assay: Epitope mapping, competitive binding inhibition EIA with patient sera (10-mer peptides, IC50); design: species or system human; Epitope mapping, fine specificity analysis, serum of subject P210: unit not given here; conditions: for Epitope mapping, fine specificity analysis, serum of subject P101: serum 16 wpi of vaccinated patient P101; for Epitope mapping, fine specificity analysis, serum of subject P102: serum 16 wpi of vaccinated patient P102; for Epitope mapping, fine specificity analysis, serum of subject P103: serum 16 wpi of vaccinated patient P103; for Epitope mapping, fine specificity analysis, serum of subject P104: serum 16 wpi of vaccinated patient P104; for Epitope mapping, fine specificity analysis, serum of subject P105: serum 16 wpi of vaccinated patient P105; for Epitope mapping, fine specificity analysis, serum of subject P106: serum 16 wpi of vaccinated patient P106; for Epitope mapping, fine specificity analysis, serum of subject P107: serum 16 wpi of vaccinated patient P107; for Epitope mapping, fine specificity analysis, serum of subject P108: serum 16 wpi of vaccinated patient P108; for Epitope mapping, fine specificity analysis, serum of subject P109: serum 16 wpi of vaccinated patient P109; for Epitope mapping, fine specificity analysis, serum of subject P201: serum 16 wpi of vaccinated patient P201; for Epitope mapping, fine specificity analysis, serum of subject P202: serum 16 wpi of vaccinated patient P202; for Epitope mapping, fine specificity analysis, serum of subject P203: serum 16 wpi of vaccinated patient P203; for Epitope mapping, fine specificity analysis, serum of subject P204: serum 16 wpi of vaccinated patient P204; for Epitope mapping, fine specificity analysis, serum of subject P205: serum 16 wpi of vaccinated patient P205; for Epitope mapping, fine specificity analysis, serum of subject P206: serum 16 wpi of vaccinated patient P206; for Epitope mapping, fine specificity analysis, serum of subject P207: serum 16 wpi of vaccinated patient P207; for Epitope mapping, fine specificity analysis, serum of subject P208: serum 16 wpi of vaccinated patient P208; for Epitope mapping, fine specificity analysis, serum of subject P209: serum 16 wpi of vaccinated patient P209; for Epitope mapping, fine specificity analysis, serum of subject P210: serum 16 wpi of vaccinated patient P210
[4] = antisera of macaques given UBI AD Vaccine 150 μg/dose, 9 WPI
[5] = antisera of macaques given UBI AD Vaccine 150 μg/dose, 15 WPI
[6] = antisera of macaques given UBI AD Vaccine 750 μg/dose, 9 WPI
[7] = antisera of macaques given UBI AD Vaccine 750 μg/dose, 15 WPI

| Substance | Reactivity of antisera with peptide (specificity analysis ELISA) [2, 4] | Reactivity of antisera with peptide (specificity analysis ELISA) [2, 5] | Reactivity of antisera with peptide (specificity analysis ELISA) [2, 6] | Reactivity of antisera with peptide (specificity analysis ELISA) [2, 7] | Epitope mapping, fine specificity analysis, serum of subject P101 [3] | Epitope mapping, fine specificity analysis, serum of subject P102 [3] | Epitope mapping, fine specificity analysis, serum of subject P103 [3] | Epitope mapping, fine specificity analysis, serum of subject P104 [3] | Epitope mapping, fine specificity analysis, serum of subject P105 [3] | Epitope mapping, fine specificity analysis, serum of subject P106 [3] | Epitope mapping, fine specificity analysis, serum of subject P107 [3] | Epitope mapping, fine specificity analysis, serum of subject P108 [3] | Epitope mapping, fine specificity analysis, serum of subject P109 [3] | Epitope mapping, fine specificity analysis, serum of subject P201 [3] | Epitope mapping, fine specificity analysis, serum of subject P202 [3] | Epitope mapping, fine specificity analysis, serum of subject P203 [3] | Epitope mapping, fine specificity analysis, serum of subject P204 [3] | Epitope mapping, fine specificity analysis, serum of subject P205 [3] | Epitope mapping, fine specificity analysis, serum of subject P206 [3] | Epitope mapping, fine specificity analysis, serum of subject P207 [3] | other results |
| --- | --- | --- | --- | --- | --- | --- | --- | --- | --- | --- | --- | --- | --- | --- | --- | --- | --- | --- | --- | --- | --- |
| 16 (MDAEFRHDSG) [Peptide 16] |  |  |  |  |  |  |  |  |  |  |  |  |  |  |  |  |  |  |  |  | ELISA Titer titers (Log10) ([1]; 0 weeks post immunization): 0.26 Log10; ELISA Titer titers (Log10) ([1]; 10 weeks post immunization): 0.32 Log10; ELISA Titer titers (Log10) ([1]; 84 weeks post immunization): 0.16 Log10; ELISA Titer titers (Log10) ([1]; 111 weeks post immunization): 0.17 Log10 |
| 8 (TEEISEVKMD) [Peptide 8] |  |  |  |  |  |  |  |  |  |  |  |  |  |  |  |  |  |  |  |  | ELISA Titer titers (Log10) ([1]; 0 weeks post immunization): 0.23 Log10; ELISA Titer titers (Log10) ([1]; 10 weeks post immunization): 0.26 Log10; ELISA Titer titers (Log10) ([1]; 84 weeks post immunization): 0.16 Log10; ELISA Titer titers (Log10) ([1]; 111 weeks post immunization): 0.15 Log10 |
| 23 (SGYEVHHQKL) [Peptide 23] |  |  |  |  |  |  |  |  |  |  |  |  |  |  |  |  |  |  |  |  | ELISA Titer titers (Log10) ([1]; 0 weeks post immunization): 0.13 Log10; ELISA Titer titers (Log10) ([1]; 10 weeks post immunization): 0.49 Log10; ELISA Titer titers (Log10) ([1]; 84 weeks post immunization): 0.51 Log10; ELISA Titer titers (Log10) ([1]; 111 weeks post immunization): 0.78 Log10 |
| 11 (ISEVKMDAEF) [Peptide 11] |  |  |  |  |  |  |  |  |  |  |  |  |  |  |  |  |  |  |  |  | ELISA Titer titers (Log10) ([1]; 0 weeks post immunization): 0.20 Log10; ELISA Titer titers (Log10) ([1]; 10 weeks post immunization): 0.20 Log10; ELISA Titer titers (Log10) ([1]; 84 weeks post immunization): 0.15 Log10; ELISA Titer titers (Log10) ([1]; 111 weeks post immunization): 0.13 Log10 |
| 13 (EVKMDAEFRH; PROPEP (1)..(10) Abeta -4-6 or APP 770(E668-H677); listed as Homo sapiens) [compound 13] | 0.046 | 0.047 | 0.054 | 0.047 | 1 | 0 | 0 | 0 | 0 | 0 | 0 | 0 | 0 | 58 | 0 | 0 | 0 | 0 | 0 | 1 | Epitope mapping, fine specificity analysis, serum of subject P208 [3]: 0; Epitope mapping, fine specificity analysis, serum of subject P209 [3]: 0; Epitope mapping, fine specificity analysis, serum of subject P210 [3]: 0 |
| 15 (KMDAEFRHDS; PEPTIDE (1)..(10) Abeta -2-8 or APP 770(K670-S679); listed as Homo sapiens) [compound 15] | 0.065 | 0.031 | 0.069 | 0.062 | 94 | 0 | 0 | 0 | 0 | 0 | 0 | 0 | 0 | 2 | 7 | 0 | 12 | 0 | 0 | 0 | Epitope mapping, fine specificity analysis, serum of subject P208 [3]: 0; Epitope mapping, fine specificity analysis, serum of subject P209 [3]: 0; Epitope mapping, fine specificity analysis, serum of subject P210 [3]: 52 |
| 10 (EISEVKMDAE; PEPTIDE (1)..(10) Abeta -7-3 or APP 770(E665-E674); listed as Homo sapiens) [compound 10] | 0.060 | 0.056 | 0.064 | 0.053 | 0 | 0 | 0 | 0 | 0 | 0 | 0 | 0 | 0 | 0 | 0 | 0 | 0 | 0 | 0 | 0 | Epitope mapping, fine specificity analysis, serum of subject P208 [3]: 0; Epitope mapping, fine specificity analysis, serum of subject P209 [3]: 0; Epitope mapping, fine specificity analysis, serum of subject P210 [3]: 0 |
| 12 (SEVKMDAEFR; PEPTIDE (1)..(10) Abeta -5-5 or APP 770(S667-R676); listed as Homo sapiens) [compound 12] | 0.056 | 0.053 | 0.054 | 0.050 | 10 | 0 | 0 | 0 | 0 | 0 | 0 | 0 | 0 | 0 | 0 | 0 | 0 | 0 | 0 | 0 | Epitope mapping, fine specificity analysis, serum of subject P208 [3]: 0; Epitope mapping, fine specificity analysis, serum of subject P209 [3]: 0; Epitope mapping, fine specificity analysis, serum of subject P210 [3]: 0 |
| 24 (GYEVHHQKLV; PEPTIDE (1)..(10) Abeta 9-18 or APP 770(G680-V689); listed as Homo sapiens) [compound 24] | 0.055 | 0.067 | 0.052 | 0.059 | 0 | 0 | 0 | 0 | 0 | 0 | 0 | 0 | 0 | 0 | 0 | 0 | 0 | 0 | 0 | 16 | Epitope mapping, fine specificity analysis, serum of subject P208 [3]: 0; Epitope mapping, fine specificity analysis, serum of subject P209 [3]: 0; Epitope mapping, fine specificity analysis, serum of subject P210 [3]: 0 |
